According to patent US20160355530A1, “HEPATITIS C INHIBITORS AND USES THEREOF” (AbbVie Inc., priority 2010, published 2016):
Like-named read-outs stand apart in the source and are kept apart here.

Columns and labels:
[1] = target: T1, HCV NS5B polymerase 1a-H77-C316Y (Hepatitis C virus genotype 1a, UniProt P27958, C2736Y); assay: biochemical; design: species or system HCV genotype 1a
T1 construct: six-histidine tag; made in house; host or cells: E. coli
Method: (§1) Purified HCV NS5B polymerase enzymes were used for polymerase inhibition assays. All recombinant HCV polymerases contained the first 570 amino acids of the 591 amino acid native protein sequence and a six-histidine tag at the N-terminus or C-terminus to facilitate purification by affinity chromatography. The DNA nucleotide sequence for the HCV polymerase 1b BK strain was codon optimized for expression in E. coli. A synthetic gene was prepared from a series of overlapping oligonucleotides that were filled in using a DNA polymerase and amplified by PCR. The patient isolate HCV polymerases were cloned by RT-PCR methods using HCV RNA extracted from the serum of infected subjects obtained from ProMedDx and BioCollections (genotypes 2a, 2b, 3a, and 4a). Laboratory strains were cloned from plasmid DNA (1a-H77 or 1a-H77-C316Y) or from existing replicon cells (1b Rice). In all cases the amplified DNA was cloned into a protein expression vector (typically a pET vector from Novagen) and then multiple clones were sequenced to identify one whose NS5B sequence agreed with the population sequence. This sequence-confirmed clone was then transfected into E. coli for protein expression and purification. E. coli cultures were grown to a maximum optical density (OD) of 2-3 and then induced with 0.4 mM isopropyl beta-D-thiogalactopyranoside (IPTG) and grown for 20 hours at 20° C.
(§2) Proteins were purified using nickel affinity chromatography, and additional column steps were added including, ion exchange, size exclusion, hydrophobic ion, and poly-U affinity chromatography, as needed, depending on the sample being purified. The template RNA used in the polymerase enzymatic assay was a 2.1 kb construct that corresponds to the 3′-end of an HCV genotype 1b negative strand RNA.
(§3) The reaction was initiated by the addition of 20 μM CTP, 20 μM ATP, 0.284 μM (0.5 μCi) of 5,6-[^3H] UTP, 5 nM template RNA and 0.1 U/μL RNase inhibitor (RNasin, Promega), and allowed to proceed for three hours at 30° C. The final reaction volume was 50 μL. The reaction was terminated by the addition of 50 uL of 4 mM spermine in 10 mM Tris-HCl, pH 7.5, 1 mM EDTA. The quenched reaction was allowed to incubate for at least 15 minutes at room temperature, and then the precipitated RNA was captured by filtration through a glass fiber filter (GF/B, Millipore) in a 96 well format. The filter plate was washed five times with 200 μL of 2 mM spermine, 10 mM Tris-HCl, pH 8.0, 1 mM EDTA, and two times with ethanol. After drying thoroughly in air, 30 μL of Microscint-20 scintillation cocktail (Perkin Elmer) was added to each well, and the retained cpm were determined by scintillation counting. IC50 values were determined by nonlinear regression.
(§4) % Inhibition=100*[[I]/([I]+[IC50])] equation 1
(§5) V=kcat[S]/2(Km+[S])*(sqrt((IC50+I−E)̂2+(4*IC50*E))−(IC50+I−E)) equation 2

[2] = target: T2, HCV NS5B polymerase 1a-H77 (Hepatitis C virus genotype 1a, UniProt P27958); assay: biochemical; design: species or system HCV genotype 1a; settings: enzyme, strain 1a H77; read-out: HCV Polymerase Strain 1a H77 IC50
T2 construct: six-histidine tag; made in house; host or cells: E. coli
T2 sequence (P27958 2421-2990): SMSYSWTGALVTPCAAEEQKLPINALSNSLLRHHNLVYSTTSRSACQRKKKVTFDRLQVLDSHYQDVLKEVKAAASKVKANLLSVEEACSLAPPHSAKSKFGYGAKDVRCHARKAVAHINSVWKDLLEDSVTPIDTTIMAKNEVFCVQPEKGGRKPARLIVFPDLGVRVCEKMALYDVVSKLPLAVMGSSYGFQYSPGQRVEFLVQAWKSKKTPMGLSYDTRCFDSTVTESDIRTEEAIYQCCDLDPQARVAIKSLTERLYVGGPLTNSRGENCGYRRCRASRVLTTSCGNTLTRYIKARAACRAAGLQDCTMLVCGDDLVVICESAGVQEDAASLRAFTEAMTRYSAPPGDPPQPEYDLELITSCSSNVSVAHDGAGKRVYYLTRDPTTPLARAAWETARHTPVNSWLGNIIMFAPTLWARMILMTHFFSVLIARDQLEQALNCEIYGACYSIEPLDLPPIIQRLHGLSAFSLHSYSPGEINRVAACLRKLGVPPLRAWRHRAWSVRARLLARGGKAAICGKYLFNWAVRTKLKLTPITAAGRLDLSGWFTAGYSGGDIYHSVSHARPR
Method: as §1, §2, §3, §4, §5

[3] = system: HCV NS5B polymerase 1a-H77-C316Y; assay: biochemical; design: species or system HCV genotype 1a; settings: ratio of enzyme IC50s, 1a H77-C316Y / 1a H77
Method: as §1, §2, §3, §4, §5

[4] = system: HCV 1b-BB7 subgenomic replicon; assay: microbe, parasite or virus in culture; format: cell-based, HCV genotype 1b; settings: Hepatitis C virus, stable replicon
[5] = target: T3, HCV NS5B polymerase 1b BK strain (Hepatitis C virus genotype 1b, UniProt P26663); assay: HCV NS5B polymerase enzymatic inhibition assay, strain 1b BK; format: biochemical; settings: enzyme, strain 1b BK; read-out: HCV Polymerase Strain 1b BK IC50
T3 construct: six-histidine tag; made in house; host or cells: E. coli
T3 sequence (P26663 2420-2989): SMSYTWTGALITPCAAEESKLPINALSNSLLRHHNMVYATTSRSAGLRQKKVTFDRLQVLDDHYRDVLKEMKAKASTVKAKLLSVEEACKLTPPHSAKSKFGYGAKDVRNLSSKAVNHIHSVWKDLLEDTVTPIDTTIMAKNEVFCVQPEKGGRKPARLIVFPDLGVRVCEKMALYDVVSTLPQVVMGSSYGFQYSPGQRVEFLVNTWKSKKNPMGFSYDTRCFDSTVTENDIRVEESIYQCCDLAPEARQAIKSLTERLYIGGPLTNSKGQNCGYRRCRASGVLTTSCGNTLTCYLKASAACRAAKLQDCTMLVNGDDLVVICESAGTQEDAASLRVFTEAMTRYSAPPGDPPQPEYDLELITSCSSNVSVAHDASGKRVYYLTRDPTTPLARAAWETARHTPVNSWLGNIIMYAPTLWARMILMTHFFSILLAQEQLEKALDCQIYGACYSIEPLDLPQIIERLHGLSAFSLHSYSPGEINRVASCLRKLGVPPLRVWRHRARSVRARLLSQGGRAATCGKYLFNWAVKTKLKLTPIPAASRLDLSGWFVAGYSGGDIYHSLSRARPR
Method: as §1, §2, §3, §4, §5

[6] = system: HCV 1a-H77 subgenomic replicon; assay: microbe, parasite or virus in culture; format: cell-based, HCV genotype 1a; settings: Hepatitis C virus, stable replicon
[7] = strain 1b BB7, 5% FBS + 40% human plasma, read-out: 1b BB7 5% FBS + 40% Human Plasma EC50
[8] = strain 1b BB7, 5% FBS, no human plasma, read-out: 1b BB7 5% FBS EC50
[9] = strain 1b BB7, 5% FBS, read-out: 1b BB7 5% FBS EC50
[10] = 5% FBS, absence of human plasma, read-out: Stable Replicon 1a H77 5% FBS EC50
[11] = strain 1a H77, 5% FBS + 40% human plasma, read-out: 1a H77 5% FBS + 40% Human Plasma EC50
[12] = strain 1a H77, 5% FBS, no human plasma, read-out: 1a H77 5% FBS EC50
[13] = strain 1a H77, 5% FBS, read-out: 1a H77 5% FBS EC50

T1 sequence (P27958 2421-2990 C2736Y): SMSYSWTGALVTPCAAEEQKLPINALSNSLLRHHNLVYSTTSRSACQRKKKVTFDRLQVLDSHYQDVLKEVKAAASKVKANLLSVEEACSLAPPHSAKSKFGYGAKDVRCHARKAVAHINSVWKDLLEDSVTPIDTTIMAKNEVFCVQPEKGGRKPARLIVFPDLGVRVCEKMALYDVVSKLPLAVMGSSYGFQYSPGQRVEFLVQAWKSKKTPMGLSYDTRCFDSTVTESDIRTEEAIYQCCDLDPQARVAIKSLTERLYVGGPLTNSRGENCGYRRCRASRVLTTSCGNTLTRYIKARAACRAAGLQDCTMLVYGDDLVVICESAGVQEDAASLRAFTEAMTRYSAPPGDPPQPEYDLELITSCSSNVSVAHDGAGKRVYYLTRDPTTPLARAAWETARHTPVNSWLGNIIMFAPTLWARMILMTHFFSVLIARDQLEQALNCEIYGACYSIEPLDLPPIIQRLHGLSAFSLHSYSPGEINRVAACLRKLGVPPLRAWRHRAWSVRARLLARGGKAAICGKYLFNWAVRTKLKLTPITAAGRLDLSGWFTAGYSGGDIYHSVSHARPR

Row | Structure (SMILES) | IC50 [1] | IC50 [2] | C316Y/1a Fold Resistance [3] | EC50 [4, 7] | EC50 [4, 8] | EC50 [4, 9] | IC50 [5] | EC50 [6, 10] | EC50 [6, 11] | EC50 [6, 12] | EC50 [6, 13]
1 | CS(=O)(=O)N(CCOc1ccccc1)c1cc2oc(-c3ccc(F)cc3)c(-c3ncc[nH]3)c2cc1C1CC1 [Example 43, N-[5-cyclopropyl-2-(4-fluorophenyl)-3-(1H-imidazol-2-yl)-1-benzofuran-6-yl]-N-(2-phenoxyethyl)methanesulfonamide] | 1000 nM | 6.5 nM | 154 fold | 616 nM | 80 nM | 80 nM | 25 nM | 269 nM | 5210 nM | 269 nM | 269 nM
2 | CS(=O)(=O)N(CC1CCCCC1)c1cc2oc(-c3ccc(F)cc3)c(-c3ncc[nH]3)c2cc1C1CC1 [Example 45, N-(cyclohexylmethyl)-N-[5-cyclopropyl-2-(4-fluorophenyl)-3-(1H-imidazol-2-yl)-1-benzofuran-6-yl]methanesulfonamide] | 295 nM | 7.5 nM | 39 fold | 4410 nM | 180 nM | 180 nM | 110 nM | 87.4 nM | 3010 nM | 87.4 nM | 87.4 nM
3 | COCCN(c1cc2oc(-c3ccc(F)cc3)c(-c3ncc[nH]3)c2cc1C1CC1)S(C)(=O)=O [Example 47, N-[5-cyclopropyl-2-(4-fluorophenyl)-3-(1H-imidazol-2-yl)-1-benzofuran-6-yl]-N-(2-methoxyethyl)methanesulfonamide] | 1000 nM | 7.9 nM | 126 fold | 148 nM | 25.6 nM | 25.6 nM | 41 nM | 81.7 nM | 771 nM | 81.7 nM | 81.7 nM
4 | CS(=O)(=O)N(CC1CCNC1)c1cc2oc(-c3ccc(F)cc3)c(-c3ncc[nH]3)c2cc1C1CC1 (stereo not shown) [Example 51, N-[5-cyclopropyl-2-(4-fluorophenyl)-3-(1H-imidazol-2-yl)-1-benzofuran-6-yl]-N-(pyrrolidin-3-ylmethyl)methanesulfonamide] | 2050 nM | 9.4 nM | 219 fold | 835 nM | 194 nM | 194 nM | 74 nM | 1000 nM | 4590 nM | 1000 nM | 1000 nM
5 | CC(C)N(c1cc2oc(-c3ccc(F)cc3)c(-c3ncc[nH]3)c2cc1C1CC1)S(C)(=O)=O [Example 52, N-[5-cyclopropyl-2-(4-fluorophenyl)-3-(1H-imidazol-2-yl)-1-benzofuran-6-yl]-N-isopropylmethanesulfonamide] | 2220 nM | 7.7 nM | 286 fold | 661 nM | 114 nM | 114 nM | 132 nM | 130 nM | 1410 nM | 130 nM | 130 nM
6 | COC(=O)CCCN(c1cc2oc(-c3ccc(F)cc3)c(-c3ncc[nH]3)c2cc1C1CC1)S(C)(=O)=O [Example 68, methyl 4-{[5-cyclopropyl-2-(4-fluorophenyl)-3-(1H-imidazol-2-yl)-1-benzofuran-6-yl](methylsulfonyl)amino}butanoate] | 103 nM | 5.9 nM | 17 fold | 496 nM | 62 nM | 62 nM | 20 nM | 57 nM | 1210 nM | 57 nM | 57 nM
7 | CS(=O)(=O)N(CCC1CCCCC1)c1cc2oc(-c3ccc(F)cc3)c(-c3ncc[nH]3)c2cc1C1CC1 [Example 72, N-(2-cyclohexylethyl)-N-[5-cyclopropyl-2-(4-fluorophenyl)-3-(1H-imidazol-2-yl)-1-benzofuran-6-yl]methanesulfonamide] | 164 nM | 14.3 nM | 11 fold | 2210 nM | 61 nM | 61 nM | 46 nM | 73.7 nM | 3390 nM | 73.7 nM | 73.7 nM
8 | CS(=O)(=O)N(CC1CCCO1)c1cc2oc(-c3ccc(F)cc3)c(-c3ncc[nH]3)c2cc1C1CC1 (stereo not shown) [Example 75, N-[5-cyclopropyl-2-(4-fluorophenyl)-3-(1H-imidazol-2-yl)-1-benzofuran-6-yl]-N-(tetrahydrofuran-2-ylmethyl)methanesulfonamide] | 1600 nM | 6.5 nM | 247 fold | 1160 nM | 45 nM | 45 nM | 60 nM | 69.6 nM | 1080 nM | 69.6 nM | 69.6 nM
9 | CC(C)=CCCN(c1cc2oc(-c3ccc(F)cc3)c(-c3ncc[nH]3)c2cc1C1CC1)S(C)(=O)=O [Example 76, N-[5-cyclopropyl-2-(4-fluorophenyl)-3-(1H-imidazol-2-yl)-1-benzofuran-6-yl]-N-(4-methylpent-3-en-1-yl)methanesulfonamide] | 131 nM | 5.9 nM | 22 fold | 661 nM | 26.9 nM | 26.9 nM | 23 nM | 48.5 nM | 3960 nM | 48.5 nM | 48.5 nM
10 | Cc1ncsc1CCN(c1cc2oc(-c3ccc(F)cc3)c(-c3ncc[nH]3)c2cc1C1CC1)S(C)(=O)=O [Example 78, N-[5-cyclopropyl-2-(4-fluorophenyl)-3-(1H-imidazol-2-yl)-1-benzofuran-6-yl]-N-[2-(4-methyl-1,3-thiazol-5-yl)ethyl]methanesulfonamide] | 107 nM | 4 nM | 27 fold | 514 nM | 15.7 nM | 15.7 nM | 13 nM | 38.5 nM | 1060 nM | 38.5 nM | 38.5 nM
11 | CS(=O)(=O)N(CCN1CCCC1)c1cc2oc(-c3ccc(F)cc3)c(-c3ncc[nH]3)c2cc1C1CC1 [Example 81, N-[5-cyclopropyl-2-(4-fluorophenyl)-3-(1H-imidazol-2-yl)-1-benzofuran-6-yl]-N-[2-(pyrrolidin-1-yl)ethyl]methanesulfonamide] | 4800 nM | 31.8 nM | 151 fold | 129 nM | 36.9 nM | 36.9 nM | 137 nM | 205 nM | 732 nM | 205 nM | 205 nM
